Assay results from ChEMBL document CHEMBL4052765, “Synthesis and antibacterial evaluation of novel 11-O-carbamoyl clarithromycin ketolides” (2017).
In brackets after ≈: the same amount, converted by molar mass.

Columns and labels:
Assay type in all cases: functional
Streptococcus pneumoniae [1] = assay: Potency index, ratio of azithromycin MIC to compound MIC against erythromycin-resistant Streptococcus pneumoniae A22072
Streptococcus pneumoniae [2] = assay: Antibacterial activity against erythromycin-resistant Streptococcus pneumoniae AB11 harboring harboring mef and erm gene after 24 h by NCCLS broth microdilution method; conditions: AB11, 24 h
Streptococcus pyogenes [3] = assay: Antibacterial activity against erythromycin-resistant Streptococcus pyogenes R1 after 24 h by NCCLS broth microdilution method; conditions: R1, 24 h
Streptococcus pneumoniae [4] = assay: Antibacterial activity against erythromycin-resistant Streptococcus pneumoniae A22072 harboring mef gene after 24 h by NCCLS broth microdilution method; conditions: A22072, 24 h
Streptococcus pneumoniae [5] = assay: Antibacterial activity against erythromycin-resistant Streptococcus pneumoniae B1 harboring erm gene after 24 h by NCCLS broth microdilution method; conditions: B1, 24 h
Staphylococcus aureus [6] = assay: Antibacterial activity against […] Staphylococcus aureus ATCC 29213 after 24 h by NCCLS broth microdilution method; conditions: ATCC 29213, 24 h
Bacillus subtilis = assay: Antibacterial activity against penicillin-susceptible Bacillus subtilis ATCC 9372 after 24 h by NCCLS broth microdilution method; conditions: ATCC 9372, 24 h
Pseudomonas aeruginosa = assay: Antibacterial activity against penicillin-susceptible Pseudomonas aeruginosa ATCC 27853 after 24 h by NCCLS broth microdilution method; conditions: ATCC 27853, 24 h
Streptococcus pyogenes [7] = assay: Antibacterial activity against erythromycin-susceptible Streptococcus pyogenes after 24 h by NCCLS broth microdilution method
Escherichia coli = assay: Antibacterial activity against penicillin-susceptible Escherichia coli ATCC 25922 after 24 h by NCCLS broth microdilution method; conditions: ATCC 25922, 24 h
Staphylococcus aureus [8] = assay: Antibacterial activity against erythromycin-susceptible Staphylococcus aureus ATCC 25923 after 24 h by NCCLS broth microdilution method; conditions: ATCC 25923, 24 h
Streptococcus pneumoniae [9] = assay: Potency index, ratio of clarithromycin MIC to compound MIC against erythromycin-resistant Streptococcus pneumoniae A22072
Staphylococcus aureus [10] = assay: Potency index, ratio of clarithromycin MIC to compound MIC against […] Staphylococcus aureus ATCC 29213

Row | SMILES | Ratio (Streptococcus pneumoniae [1]) | MIC (Streptococcus pneumoniae [2]) [µg/mL] | MIC (Streptococcus pyogenes [3]) [µg/mL] | MIC (Streptococcus pneumoniae [4]) [µg/mL] | MIC (Streptococcus pneumoniae [5]) [µg/mL] | MIC (Staphylococcus aureus [6]) [µg/mL] | MIC (Bacillus subtilis) [µg/mL] | MIC (Pseudomonas aeruginosa) [µg/mL] | MIC (Streptococcus pyogenes [7]) [µg/mL] | MIC (Escherichia coli) [µg/mL] | MIC (Staphylococcus aureus [8]) [µg/mL] | Ratio (Streptococcus pneumoniae [9]) | Ratio (Staphylococcus aureus [10])
1 | CC[C@H]1OC(=O)[C@H](C)C(=O)[C@H](C)[C@@H](O[C@@H]2O[C@H](C)C[C@H](N(C)C)[C@H]2O)[C@](C)(OC)C[C@@H](C)C(=O)[C@H](C)[C@@H](OC(=O)NCCNC(=O)c2ccc(Cl)cc2)[C@]1(C)O | 4 | 64 (≈ 78.8 µM) | > 128 | 0.5 (≈ 0.615 µM) | 128 (≈ 158 µM) | 128 (≈ 158 µM) | 0.25 (≈ 0.308 µM) | 128 (≈ 158 µM) | 1 (≈ 1.23 µM) | > 128 | 16 (≈ 19.7 µM) | – | –
2 | CC[C@H]1OC(=O)[C@H](C)C(=O)[C@H](C)[C@@H](O[C@@H]2O[C@H](C)C[C@H](N(C)C)[C@H]2O)[C@](C)(OC)C[C@@H](C)C(=O)[C@H](C)[C@@H](OC(=O)NCCNC(=O)c2ccc([N+](=O)[O-])cc2N)[C@]1(C)O | 4 | 64 (≈ 76.4 µM) | > 128 | 0.5 (≈ 0.597 µM) | 128 (≈ 153 µM) | 128 (≈ 153 µM) | 1 (≈ 1.19 µM) | > 128 | 0.5 (≈ 0.597 µM) | 128 (≈ 153 µM) | 8 (≈ 9.55 µM) | 8 | –
3 | CC[C@H]1OC(=O)[C@H](C)C(=O)[C@H](C)[C@@H](O[C@@H]2O[C@H](C)C[C@H](N(C)C)[C@H]2O)[C@](C)(OC)C[C@@H](C)C(=O)[C@H](C)[C@@H](OC(=O)NCCNC(=O)/C=C/c2cccc3ccccc23)[C@]1(C)O | – | 128 (≈ 150 µM) | 128 (≈ 150 µM) | 2 (≈ 2.34 µM) | 128 (≈ 150 µM) | 32 (≈ 37.5 µM) | 2 (≈ 2.34 µM) | > 128 | 1 (≈ 1.17 µM) | 128 (≈ 150 µM) | 16 (≈ 18.7 µM) | – | –
4 | CC[C@H]1OC(=O)[C@H](C)C(=O)[C@H](C)[C@@H](O[C@@H]2O[C@H](C)C[C@H](N(C)C)[C@H]2O)[C@](C)(OC)C[C@@H](C)C(=O)[C@H](C)[C@@H](OC(=O)NCCNC(=O)/C=C/c2ccc(Cl)cc2)[C@]1(C)O | 4 | 128 (≈ 153 µM) | > 128 | 0.5 (≈ 0.596 µM) | 128 (≈ 153 µM) | 64 (≈ 76.3 µM) | 4 (≈ 4.77 µM) | > 128 | 2 (≈ 2.39 µM) | > 128 | 16 (≈ 19.1 µM) | 8 | –
5 | CC[C@H]1OC(=O)[C@H](C)C(=O)[C@H](C)[C@@H](O[C@@H]2O[C@H](C)C[C@H](N(C)C)[C@H]2O)[C@](C)(OC)C[C@@H](C)C(=O)[C@H](C)[C@@H](OC(=O)NCCNC(=O)/C=C/c2ccco2)[C@]1(C)O | – | 128 (≈ 161 µM) | > 128 | 1 (≈ 1.26 µM) | 128 (≈ 161 µM) | 16 (≈ 20.2 µM) | 8 (≈ 10.1 µM) | 128 (≈ 161 µM) | 4 (≈ 5.04 µM) | 128 (≈ 161 µM) | 64 (≈ 80.6 µM) | – | 4
6 | CC[C@H]1OC(=O)[C@H](C)C(=O)[C@H](C)[C@@H](O[C@@H]2O[C@H](C)C[C@H](N(C)C)[C@H]2O)[C@](C)(OC)C[C@@H](C)C(=O)[C@H](C)[C@@H](OC(=O)NCCNC(=O)c2cc([N+](=O)[O-])cc([N+](=O)[O-])c2)[C@]1(C)O | 4 | 64 (≈ 73.7 µM) | 128 (≈ 147 µM) | 0.5 (≈ 0.576 µM) | 128 (≈ 147 µM) | 128 (≈ 147 µM) | 1 (≈ 1.15 µM) | 128 (≈ 147 µM) | 0.125 (≈ 0.144 µM) | 128 (≈ 147 µM) | 8 (≈ 9.22 µM) | 8 | –
7 | CC[C@H]1OC(=O)[C@H](C)[C@@H](O[C@H]2C[C@@](C)(OC)[C@@H](O)[C@H](C)O2)[C@H](C)[C@@H](O[C@@H]2O[C@H](C)C[C@H](N(C)C)[C@H]2O)[C@](C)(O)C[C@@H](C)CN(C)[C@H](C)[C@@H](O)[C@]1(C)O [AZITHROMYCIN] | – | > 128 | > 128 | 2 (≈ 2.67 µM) | > 128 | 8 (≈ 10.7 µM) | 0.25 (≈ 0.334 µM) | 16 (≈ 21.4 µM) | 0.03 (≈ 0.0401 µM) | 16 (≈ 21.4 µM) | 0.25 (≈ 0.334 µM) | – | –
8 | CC[C@H]1OC(=O)[C@H](C)[C@@H](O[C@H]2C[C@@](C)(OC)[C@@H](O)[C@H](C)O2)[C@H](C)[C@@H](O[C@@H]2O[C@H](C)C[C@H](N(C)C)[C@H]2O)[C@](C)(OC)C[C@@H](C)C(=O)[C@H](C)[C@@H](O)[C@]1(C)O [CLARITHROMYCIN] | – | 128 (≈ 171 µM) | > 128 | 4 (≈ 5.35 µM) | > 128 | 64 (≈ 85.6 µM) | 0.25 (≈ 0.334 µM) | 64 (≈ 85.6 µM) | 0.03 (≈ 0.0401 µM) | 64 (≈ 85.6 µM) | 0.25 (≈ 0.334 µM) | – | –
